This is an account of results in PubChem BioAssay (NCI).

Values joined by “and” are separate entries in the source; they are usually repeats but may differ in a detail not shown here. Equal entries are not always repeated.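 Values below derive from 48-hour exposures of cells grown in 96-well plates, with endpoints linearly interpolated between the two concentrations bracketing the appropriate inhibition level. At the GI50, growth is halved. TGI is the concentration that stops growth completely.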

Common to all, as to assay: NCI anticancer screen, dose series, 48 h
The test system of assay [1] is RPMI-8226 leukemia.
The subject of assay [2] is NCI-H226 lung.
Assay [3] concerns EKVX NSCLC.
Assay [4] concerns SF-268 CNS.
Assay [5] has as its system SK-MEL-28 melanoma.
The subject of assay [6] is MOLT-4 leukemia.
For assay [7], the system named is UO-31 renal.
Assay [8] relates to NCI-H460 lung.
Assay [9] concerns COLO 205 colon.
Assay [10] relates to CAKI-1 renal.

Turning to `Cc1nc(Nc2n[nH]c3c2CN(C(=O)N[C@H](CN(C)C)c2ccccc2)C3(C)C)c2sccc2n1`, the GI50 in [1] was 0.148 µM and 0.107 µM; in assay [2] it was 0.341 µM and 0.302 µM; in assay [3], 0.0907 µM and 0.14 µM; in assay [4] it was 0.177 µM and 0.427 µM; in [5] it was 0.013 µM and < 0.01 µM; in assay [6], 0.092 µM and 0.276 µM. In addition, the GI50 was 0.229 µM and 1.28 µM in [7]; 0.0132 µM and 0.0223 µM in assay [8]; 0.00866 µM and < 0.0109 µM in assay [9]. Also, the TGI in assay [1] is > 4.74 µM and 5.69 µM; in assay [2], > 5.18 µM and 5.01 µM; in assay [3], > 8.27 µM and 23.6 µM; in assay [4] it was > 4.61 µM and 5.23 µM; in assay [5], 1.12 µM and 4.31 µM; in assay [6], 9.74 µM and 7.04 µM. The TGI was > 4.67 µM and 42.3 µM in assay [7]; > 4.07 µM and 10.7 µM in assay [8]; 0.241 µM and 0.279 µM in assay [9]; > 5.08 µM and 51.9 µM in [10].
Turning to `CC(=O)[CH-]C(C)=O.[CH2-]C.[CH2-]C.[Tl+3]`, the GI50 in assay [1], in assay [2], in assay [3], in [4], in assay [5] and in assay [6] was > 100 µM each time. Besides, the GI50 in assay [7], in assay [8], in assay [9] and in assay [10] was > 100 µM throughout. Further, the TGI in assay [1], in assay [2], in assay [3], in assay [4], in assay [5] and in assay [6] was > 100 µM in each case. The TGI in assay [7], in [8], in assay [9] and in [10] was > 100 µM each time.
Consider `Cc1ccccc1Nc1nc2c(s1)C(=O)c1ccccc1C2=O`, for which the TGI in assay [1] is 18 µM; in assay [2], 32.8 µM; in assay [3] it was 21 µM; in assay [4], 13 µM; in [5], 27.7 µM; in [6], > 24.3 µM. The TGI in assay [7] amounted to 14.4 µM; in assay [8] it was 25.3 µM; in assay [9], 34.7 µM; in assay [10], 30.3 µM.
In the case of `CC1(C)N=C(N)N=C(N)N1c1ccc(OCC(=O)Nc2ccccc2)c(Cl)c1`, the GI50 in [1] is 9.89 µM; in [2] it was > 71.6 µM; in assay [3], 35 µM; in assay [4], 0.677 µM; in [5], > 58.8 µM; in assay [6] it was 1.19 µM. The GI50 in assay [7] is > 100 µM; in assay [8], 0.0748 µM; in assay [9] it was 18.3 µM; in [10], > 85.9 µM. For the same molecule, the TGI is > 100 µM in [1]; > 100 µM in assay [2]; > 100 µM in assay [3]; > 100 µM in assay [4]; > 100 µM in assay [5]; > 59.6 µM in assay [6]. The TGI in [7], in assay [8], in assay [9] and in assay [10] was > 100 µM in each case.
As for `COc1cccc(/C=C2\CCC(C)(CN(C)C)C2=O)c1` (stereo not drawn), the TGI is 68.1 µM in assay [1]; > 100 µM in assay [2]; > 100 µM in assay [3]; > 100 µM in assay [4]; > 100 µM in assay [5]; > 100 µM in [6]. In addition, the TGI in assay [7], in [8], in [9] and in [10] was > 100 µM in each case.
Turning to `CC(CC(=O)Nc1ccc(NC(=O)CC(C)N=NC(N)=S)cc1)N=NC(N)=S` (stereo not drawn), the TGI in assay [1], in [2], in assay [3], in assay [4], in assay [5] and in assay [6] was > 100 µM each time. Besides, the TGI in assay [7], in assay [8], in assay [9] and in assay [10] was > 100 µM in each case.
Turning to `COc1ccccc1/C=C/C(=O)/C=C/c1ccccc1O`, the GI50 was 0.164 µM in [1]; 1.71 µM in [2]; 1.75 µM in assay [3]; 1.34 µM in assay [4]; 1.56 µM in assay [5]; 0.163 µM in assay [6]. For the same molecule, the GI50 in [7] was 0.359 µM; in assay [8], 1.67 µM; in assay [9] it was 1.11 µM; in assay [10] it was 1.79 µM. Also, the TGI in [1] turned out to be 0.401 µM; in assay [2], 4.12 µM; in [3], 5.63 µM; in assay [4] it was 6.13 µM; in [5] it was 3.72 µM; in [7], 1.61 µM. Further, the TGI was 4.39 µM in [8], 2.49 µM in assay [9] and 5.53 µM in [10].
